Reference: publication PMC4139342, “Pharmacokinetics-Pharmacodynamics Analysis of Bicyclic 4-Nitroimidazole Analogs in a Murine Model of Tuberculosis” (PLoS ONE, 2014)
≈ marks a conversion by molar mass, not a printed value. Read-outs that look alike come from different tables or passages of the source.

Experiments:
[1] = test system: Mtb H37Rv; experiment: In vivo mouse efficacy, established murine TB model; set-up: species or system Balb/c mice; settings: for Efficacy compared with PA-824, in words: significance at P<0.05
Protocol: In vivo mouse efficacy studies were determined after intranasal infection of Balb/c mice with 10^3 cfu Mtb H37Rv. Treatment was initiated 4 weeks after infection. Compounds were orally administered in CM-2 formulation for 4 weeks daily. Bacterial loads were determined at 2 and 4 weeks post treatment. Statistical analysis was done by a one-way analysis of variance, followed by a multiple comparison analysis of variance by a one-way Tukey test (GraphPad Prism, version 5.02, San Diago, California USA, www.graphpad.com). Differences were considered statistically significant at the 95% level of confidence.

[2] = physchem; settings: pH 6.8, aqueous buffer, thermodynamic from solid
[3] = in vivo; settings: female, CD-1, mouse, po
[4] = in vivo; settings: female, CD-1, mouse, iv; for clearance: i.v. CL
[5] = In vivo plasma PK after oral dosing in CM-2 formulation; settings: female, CD-1, mouse, plasma, po
[6] = in vivo; settings: female, CD-1, mouse, po; remark: listed apart in the source
[7] = In vivo plasma PK after intravenous dosing; settings: mice; for half-life: female, CD-1, mouse, plasma, iv, T1/2 (i.v)
[8] = Cytotoxicity against THP1 macrophage cell lines; format: cell-based; settings: human
[9] = female, CD-1, mouse, in vivo, po
[10] = in vitro; settings: mouse, plasma
[11] = In vivo lung PK after oral dosing; settings: female, CD-1, mouse
[12] = test system: M. tuberculosis (Mtb) (H37Rv, ATCC 27294); experiment: microbe, parasite or virus in culture; format: cell-based; settings: Mycobacterium tuberculosis
[13] = physchem
[14] = in vitro; settings: human, Caco-2
[15] = 100 mg/kg oral daily for 4 weeks, 5 animals
[16] = 100 mg/kg oral daily for 4 weeks
[17] = Mycobacterium tuberculosis, H37RV, po, 672 h, 100 mg/kg oral daily for 4 weeks, 5 animals, read-out: Mean log lung CFU reduction ± SEM compared to untreated controls
[18] = 10 mg/kg, Lung to Plasma ratio AUC24
[19] = 10 mg/kg, Lung to Plasma ratio Cmax
[20] = 10 mg/kg, i.v. dosing at 10 mg/kg
[21] = 25 mg/kg, Lung to Plasma ratio AUC24
[22] = 25 mg/kg, Lung to Plasma ratio Cmax
[23] = 5 mg/kg, i.v. dosing at 5 mg/kg

SMILES	Mean log lung CFU ± SEM [1, 15] [log CFU]	Efficacy compared with PA-824, in words [1, 16]	log reduction at 100 mg/kg [1, 17]	solubility [2] [µg/mL]	PAMPA %FA [%]	PAMPA Log Pe	Vd ([4]; 10 mg/kg) [L/kg]	clearance ([4]; 10 mg/kg) [mL/min/kg]	half-life [7, 20] [h]	CC50 [8] [µg/mL]	fraction unbound [10]	MIC99 [12] [µg/mL]	logP [13]	Papp A→B [14] [×10⁻⁶ cm/s]	Papp B→A [14] [×10⁻⁶ cm/s]	efflux ratio [14]	Kp [3, 21]	Kp [3, 22]	Vd ([4]; 5 mg/kg) [L/kg]	clearance ([4]; 5 mg/kg) [mL/min/kg]	also measured
O=[N+]([O-])c1cn2c(n1)OC[C@@H](NCc1ccc(OC(F)(F)F)cc1)C2 [Amino-824, ((s)-2-nitro-6,7-dihydro-5H-imidazo[2,1-b][1,3]oxazin-6-yl)-(4-trifluoromethoxybenzyl)amine]	5.14±0.08	significantly (P<0.05) less efficacious than PA-824	1.08 ± 0.08	127 (≈ 354 µM)	91	–4.8 cm/sec	2.3	20.5	2	> 10	0.2	0.14 (≈ 0.391 µM)	2.5	35.4	21	0.6	–	–	–	–	Kp [3, 18]: 0.8; Kp [3, 19]: 0.8; half-life ([5]; 10 mg/kg): 2 h; AUC ([6]; 10 mg/kg): 6000 ng·h/mL; Cmax ([6]; 10 mg/kg): 1700 ng/mL; bioavailability ([6]; 10 mg/kg): 74%; Lung AUC24 ([9]; 10 mg/kg): 4.5 µg·h/g; Lung Cmax ([9]; 10 mg/kg): 1.4 µg/g; half-life ([11]; 10 mg/kg): 1.3 h
O=[N+]([O-])c1cn2c(n1)OC[C@@H](NCCc1ccc(OC(F)(F)F)cc1)C2 [AminoEthyl-824]	4.53±0.07	comparable efficacy to PA-824	1.69 ± 0.07	104 (≈ 279 µM)	85	–4.6 cm/sec	2	44	< 1	> 10	0.55	0.06 (≈ 0.161 µM)	3.6	18.6	20.7	1.1	–	–	–	–	Kp [3, 18]: 1.8; Kp [3, 19]: 1.6; half-life ([5]; 10 mg/kg): 1.7 h; AUC ([6]; 10 mg/kg): 2900 ng·h/mL; Cmax ([6]; 10 mg/kg): 1000 ng/mL; bioavailability ([6]; 10 mg/kg): 76%; T1/2 (i.v) ([7]; i.v. dosing at 10 mg/kg, 10 mg/kg): 0.7 h; Lung AUC24 ([9]; 10 mg/kg): 5.2 µg·h/g; Lung Cmax ([9]; 10 mg/kg): 1.6 µg/g; half-life ([11]; 10 mg/kg): 1.2 h
CC[C@@H]1Oc2nc([N+](=O)[O-])cn2C[C@@H]1OCc1ccc(OC(F)(F)F)cc1 [NI-145]	–	–	–	< 2	99	–3.85 cm/sec	–	–	–	> 10	–	0.06 (≈ 0.155 µM)	3.85	–	–	–	2.1	2.3	1.7	17	Tmax ([3]; 25 mg/kg): 2 h; half-life ([5]; 25 mg/kg): 4.2 h; AUC ([6]; 25 mg/kg): 16200 ng·h/mL; Cmax ([6]; 25 mg/kg): 1800 ng/mL; Tmax ([6]; 25 mg/kg): 2 h; bioavailability ([6]; 25 mg/kg): 68%; half-life [7, 23]: 2 h; Lung AUC24 ([9]; 25 mg/kg): 34.6 µg·h/g; Lung Cmax ([9]; 25 mg/kg): 4.2 µg/g; half-life ([11]; 25 mg/kg): 4.1 h
CC[C@@H]1Oc2nc([N+](=O)[O-])cn2C[C@@H]1NCc1ccc(OC(F)(F)F)c(F)c1 [NI-176]	–	–	–	8 (≈ 19.8 µM)	99	–3.7 cm/sec	–	–	–	> 10	–	0.03 (≈ 0.0742 µM)	3.5	–	–	–	2.2	2.2	1.8	22.2	half-life ([5]; 25 mg/kg): 4.3 h; AUC ([6]; 25 mg/kg): 13700 ng·h/mL; Cmax ([6]; 25 mg/kg): 2200 ng/mL; bioavailability ([6]; 25 mg/kg): 86%; half-life [7, 23]: 1 h; Lung AUC24 ([9]; 25 mg/kg): 30.3 µg·h/g; Lung Cmax ([9]; 25 mg/kg): 4.8 µg/g; half-life ([11]; 25 mg/kg): 4.3 h
CC[C@@H]1Oc2nc([N+](=O)[O-])cn2C[C@@H]1NCc1ccc(OC(F)(F)F)cc1 [NI-269]	–	–	–	12 (≈ 31.1 µM)	99	–3.7 cm/sec	–	–	–	> 10	–	0.03 (≈ 0.0777 µM)	3.15	–	–	–	1.7	1.9	2.6	19.7	Tmax ([3]; 25 mg/kg): 0.3 h; half-life ([5]; 25 mg/kg): 3.8 h; AUC ([6]; 25 mg/kg): 16000 ng·h/mL; Cmax ([6]; 25 mg/kg): 2800 ng/mL; Tmax ([6]; 25 mg/kg): 0.3 h; bioavailability ([6]; 25 mg/kg): 88%; half-life [7, 23]: 2.1 h; Lung AUC24 ([9]; 25 mg/kg): 27.5 µg·h/g; Lung Cmax ([9]; 25 mg/kg): 5.4 µg/g; half-life ([11]; 25 mg/kg): 2.7 h
O=C(CO[C@@H]1COc2nc([N+](=O)[O-])cn2C1)N1CCN(c2ccc(OC(F)(F)F)cc2)CC1 [NI-622]	5.85±0.11	significantly (P<0.05) less efficacious than PA-824	0.81 ± 0.11	28.2 (≈ 59.8 µM)	31	–5.3 cm/sec	1.8	14.7	1.8	> 10	0.03	0.18 (≈ 0.382 µM)	2.9	9.5	12.4	1.3	–	–	–	–	Mean log lung CFU ± SEM ([1]; 25 mg/kg oral daily for 4 weeks, 5 animals): 5.77±0.08 log CFU; Efficacy compared with PA-824, in words ([1]; 25 mg/kg oral daily for 4 weeks): significantly (P<0.05) less efficacious than PA-824; Dose dependence of efficacy, in words ([1]; 25 versus 100 mg/kg oral daily for 4 weeks): no dose-dependent increase in bactericidal activity; log reduction at 25 mg/kg ([1]; Mycobacterium tuberculosis, H37RV, po, 672 h, 25 mg/kg oral daily for 4 weeks, 5 animals, read-out: Mean log lung CFU reduction ± SEM compared to untreated controls): 0.48 to 0.89; Kp ([3]; 50 mg/kg, Lung to Plasma ratio AUC24): 0.7; Kp ([3]; 50 mg/kg, Lung to Plasma ratio Cmax): 0.7; half-life ([5]; 50 mg/kg): 2.1 h; AUC ([6]; 50 mg/kg): 108000 ng·h/mL; Cmax ([6]; 50 mg/kg): 14800 ng/mL; bioavailability ([6]; 50 mg/kg): 100%; Lung AUC24 ([9]; 50 mg/kg): 71.1 µg·h/g; Lung Cmax ([9]; 50 mg/kg): 10.2 µg/g; half-life ([11]; 50 mg/kg): 1.8 h
COc1ccc(C[C@H](N)C(=O)N[C@H]2[C@@H](O)[C@H](n3cnc4c(N(C)C)ncnc43)O[C@@H]2CO)cc1 [Puromycin, reference compound]	–	–	–	–	–	–	–	–	–	–	–	–	–	–	–	–	–	–	–	–	CC50 ([8]; THP1 macrophage cell lines, read-out: Cytotoxicity CC50): 1.4 µg/mL (≈ 2.97 µM)
